Measured values taken from PubChem BioAssay AID1552 (Sanford-Burnham Center for Chemical Genomics, 2009).
Activity calls are given as the source filed them. The rule behind the calls is not given here.

The compounds below were run against Ubiquitin-conjugating enzyme E2 N (Homo sapiens) (UniProt P61088) (assay: NMR detection of UBE2N ligand binding – biophysical, purified protein (AID 1552)). Conditions: NMR binding to purified UBE2N.
Chain of Ubiquitin-conjugating enzyme E2 N (Homo sapiens) (P61088 whole entry, looked up): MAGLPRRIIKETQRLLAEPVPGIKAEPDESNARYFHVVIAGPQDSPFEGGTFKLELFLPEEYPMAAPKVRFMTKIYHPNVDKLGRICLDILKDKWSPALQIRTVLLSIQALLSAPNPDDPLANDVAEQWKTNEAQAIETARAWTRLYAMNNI
With `NCc1ccc(S(N)(=O)=O)cc1` the Kd was > 4 mM (inactive). `O=C1CSC(=Nc2ccc(F)cc2)N1` was tested, and the Kd was > 4 mM (inactive). `COc1ccc(-c2c(OC)c3c(OC)c4c(cc3oc2=O)OC(C)(C)C=C4)cc1` was tested, and the Kd was > 4 mM (inactive). `COC(=O)C(O)c1ccccc1` (configuration not stated) was tested, and the Kd was > 4 mM (inactive). In the case of `CCc1cccc(C)c1NC(=O)c1cc(C)oc1C`, the Kd is reported as > 4 mM (inactive). In the case of `Cn1c(=O)c2cn3ncccc3c2n(C)c1=O`, the Kd is reported as > 4 mM (inactive). `COc1cc2c3cc1Oc1cc(ccc1O)C[C@@H]1c4c(cc(OC)c(O)c4Oc4ccc(cc4)C[C@@H]3N(C)CC2)CC[N+]1(C)C` was tested, and the Kd was > 4 mM (inactive). With `Cc1cc(N2C(=O)CCC2=O)n(-c2ccccc2)n1` the Kd was > 4 mM (inactive). `CC(Sc1ncn[nH]1)C(=O)O` (configuration not stated) was tested, and the Kd was > 4 mM (inactive). With `O=c1/c(=C\c2cccnc2)sc2nc3ccccc3n12` the Kd was > 4 mM (inactive). In the case of `CCc1noc(C)c1C(=O)N1CCCC1`, the Kd is reported as > 4 mM (inactive). For `COc1ccc(-c2coc3cc(OC)cc(OC)c3c2=O)cc1`, the Kd was > 4 mM (inactive). For `CC1(C)C(=O)C=C[C@@]2(C)C1=C(O)C(=O)[C@]1(C)C2CC[C@@]2(C)[C@H](c3ccoc3)C[C@H]3O[C@]321` (some centres not stated), the Kd was > 4 mM (inactive). In the case of `CCCc1cc(=O)[nH]c2nnc(SCC(C)=O)n12`, the Kd is reported as > 4 mM (inactive). In the case of `Nc1ccc(CCC(=O)O)cc1`, the Kd is reported as > 4 mM (inactive). In the case of `CC(=O)N1CCc2ccccc2C1CC(=O)O` (configuration not stated), the Kd is reported as > 4 mM (inactive). `Cc1cc(C(=O)Nc2cccnc2)no1` was tested, and the Kd was > 4 mM (inactive). For `NC(=O)C1CCN(C2CC(=O)NC2=O)CC1` (configuration not stated), the Kd was > 4 mM (inactive). `NC(=O)C1CCN(S(=O)(=O)c2ccccc2)CC1` was tested, and the Kd was > 4 mM (inactive). For `O=C1C2C3C=CC(C3)C2C(=O)N1CCCO` (configuration not stated), the Kd was > 4 mM (inactive). With `Cc1cccc(NC(=O)Nc2cc(C)on2)c1` the Kd was > 4 mM (inactive). With `Cc1cc(=O)cc(C)n1-c1ccccc1N` the Kd was > 4 mM (inactive). With `OC1CCC(C(F)(F)F)CC1` (configuration not stated) the Kd was > 4 mM (inactive). `CC(C1OC(C)(C)C(O)C1O)[C@@H]1CC[C@]2(C)C3=CCC4C(C)(C)C(=O)CC[C@]4(C)C3CC[C@@]12C` (some centres not stated) was tested, and the Kd was > 4 mM (inactive). With `NCc1ccc(-c2csnn2)cc1` the Kd was > 4 mM (inactive). With `O=C1CS/C(=N/S(=O)(=O)c2ccccc2)N1` the Kd was > 4 mM (inactive). With `Cc1ccc(C)c(S(=O)(=O)NCc2cccnc2)c1` the Kd was > 4 mM (inactive). In the case of `CN(C)c1ccc(N2C(=O)CCC2=O)cc1`, the Kd is reported as > 4 mM (inactive). `Cn1c(=O)n(-c2cccc(Cl)c2)c(=O)n1C` was tested, and the Kd was > 4 mM (inactive). `COc1ccc([C@@H](C)C(=O)c2ccc(O)cc2O)cc1` was tested, and the Kd was > 4 mM (inactive). In the case of `O=C(O)c1ccc2c(c1)CCO2`, the Kd is reported as > 4 mM (inactive). With `COc1ccc(Cl)cc1NC(=O)C(N)=O` the Kd was > 4 mM (inactive). In the case of `CC(=O)N=c1cccc(NC(C)=O)n1O`, the Kd is reported as > 4 mM (inactive). `C/C=C(/C)C(=O)O[C@H]1CC[C@@]2(C)[C@@H]3CC[C@H]4[C@]5(O)C[C@H](O)[C@@]6(O)[C@@H](CN7C[C@@H](C)CC[C@H]7[C@@]6(C)O)[C@]5(O)C[C@@]42OC13O` was tested, and the Kd was > 4 mM (inactive). For `O=C1NC(=S)NC(=O)C1=Cc1ccncc1`, the Kd was > 4 mM (inactive). `O=C1NC(=S)N/C1=C/c1ccc(O)c(Cl)c1` was tested, and the Kd was > 4 mM (inactive). In the case of `O=C(O)CCN1CCc2ccccc2C1c1ccncc1` (configuration not stated), the Kd is reported as > 4 mM (inactive). With `CC1=C(C(N)=O)C(c2ccccc2)NC(=O)N1` (configuration not stated) the Kd was > 4 mM (inactive). With `COCC(=O)Nc1nc2ccc(C)cc2s1` the Kd was > 4 mM (inactive). In the case of `CSc1nnc2ccc(-c3cccnc3)nn12`, the Kd is reported as > 4 mM (inactive). For `O=C1CNc2cc(C(=O)O)ccc2N1`, the Kd was > 4 mM (inactive). In the case of `Cc1nc(-c2cccc(N)c2)cs1`, the Kd is reported as > 4 mM (inactive). For `CCOC(=O)CSCC(=O)Nc1nccs1`, the Kd was > 4 mM (inactive). For `CC(=O)Oc1ccc(-c2nc(-c3cccnc3)no2)cc1`, the Kd was > 4 mM (inactive). With `COc1c2occc2cc2ccc(=O)oc12` the Kd was > 4 mM (inactive). With `O=C(O)CNC(=O)c1ccccc1Cl` the Kd was > 4 mM (inactive). `Cc1nc2ccccc2c(=O)n1/N=C/c1ccco1` was tested, and the Kd was > 4 mM (inactive). With `O=C(Oc1ccc2c(c1)CCC2)N1CCOCC1` the Kd was > 4 mM (inactive). In the case of `CC(=O)Nc1cccc(NC(=O)c2cccnc2)c1`, the Kd is reported as > 4 mM (inactive). With `O=c1oc2ccccc2cc1O` the Kd was > 4 mM (inactive). For `CCNC(=O)CC[C@H](N)C(=O)O`, the Kd was > 4 mM (inactive). `COc1ccccc1NC(N)=S` was tested, and the Kd was > 4 mM (inactive). For `NCc1ccc(CN2CCOCC2)cc1`, the Kd was > 4 mM (inactive). For `OC1CCN(Cc2ccc[nH]2)CC1`, the Kd was > 4 mM (inactive). For `CCOC(=O)CC1NCCNC1=O` (configuration not stated), the Kd was > 4 mM (inactive). In the case of `C[C@H]1O[C@@H](O[C@H]2[C@@H](O)C[C@H](O[C@H]3[C@@H](O)C[C@H](O[C@H]4CC[C@]5(C)C6C[C@@H](O)[C@]7(C)[C@@H](C8=CC(=O)OC8)CC[C@]7(O)C6CC[C@@H]5C4)O[C@@H]3C)O[C@@H]2C)C[C@H](O)[C@@H]1O` (some centres not stated), the Kd is reported as > 4 mM (inactive). In the case of `O=C(O)c1ccc(-n2ccnc2)cc1`, the Kd is reported as > 4 mM (inactive). With `Oc1ccc(C(=S)N2CCCCC2)cc1Cl` the Kd was > 4 mM (inactive). In the case of `O=C(c1ccco1)N1CCCN(C(=O)c2ccco2)CC1`, the Kd is reported as > 4 mM (inactive). With `O=C(c1ccccc1F)N1CCN(c2ccccc2)CC1` the Kd was > 4 mM (inactive). In the case of `COc1ccccc1/C=C/CN1CCOCC1`, the Kd is reported as > 4 mM (inactive). With `Cc1ccc(NC(=O)CC2NCCNC2=O)c(C)c1` (configuration not stated) the Kd was > 4 mM (inactive). For `O=C(NC(=S)NCCO)c1ccccc1`, the Kd was > 4 mM (inactive). With `Cc1noc(-c2ccccc2)c1C(=O)O` the Kd was > 4 mM (inactive). For `C=C[C@](C)(O)CCC=C(C)C`, the Kd was > 4 mM (inactive). With `O=C(O)CCCNC(=O)c1ccccc1C(=O)O` the Kd was > 4 mM (inactive). `c1coc(-c2nc(-c3ccncc3)no2)c1` was tested, and the Kd was > 4 mM (inactive). With `CN1CCn2c1nc(N1CCCCC1)nc2=O` the Kd was > 4 mM (inactive). In the case of `COC1C(O)C(O)C(O)[C@@H](O)C1O` (some centres not stated), the Kd is reported as > 4 mM (inactive). In the case of `Cc1csc(NC(=O)c2cccs2)n1`, the Kd is reported as > 4 mM (inactive). With `O=c1cnnc(SCCc2ccccc2)[nH]1` the Kd was > 4 mM (inactive). For `CC[C@H](/C=C/C(C)C1CCC2C3CCC4=CC(=O)CC[C@]4(C)C3CC[C@]12C)C(C)C` (some centres not stated), the Kd was > 4 mM (inactive). For `COc1ccccc1/C=C\C(=O)O`, the Kd was > 4 mM (inactive). In the case of `COC(=O)C1CCN(c2ccc(Cl)nn2)CC1`, the Kd is reported as > 4 mM (inactive). `O=C(Nc1ccon1)c1csc2c1CCCC2` was tested, and the Kd was > 4 mM (inactive). `COc1ccc(C[C@H]2NC[C@H](O)[C@H]2OC(C)=O)cc1` was tested, and the Kd was > 4 mM (inactive). In the case of `CC(=O)CNc1cc(CNC(C)=O)c(C)cc1C`, the Kd is reported as > 4 mM (inactive). `CC(=O)Nc1ccc(C(=O)n2nc(C)cc2C)cc1` was tested, and the Kd was > 4 mM (inactive). With `OCC1CN(Cc2ccccc2)CCO1` (configuration not stated) the Kd was > 4 mM (inactive). For `O=C(O)c1ccc(-c2cccs2)cc1`, the Kd was > 4 mM (inactive). For `O=C(O)C1COc2ccccc2C1` (configuration not stated), the Kd was > 4 mM (inactive). In the case of `N#Cc1cnn2c(C(F)(F)F)cc(C(F)(F)F)nc12`, the Kd is reported as > 4 mM (inactive). `NC1=NC(=O)/C(=C/c2cccc([N+](=O)[O-])c2)S1` was tested, and the Kd was > 4 mM (inactive). With `Cc1cc(C)n2nc(C(=O)Nc3cccnc3)nc2n1` the Kd was > 4 mM (inactive). For `O=C(O)CSc1cccc2cccnc12`, the Kd was > 4 mM (inactive). With `O=C(NC1=NCCS1)c1ccc(Cl)s1` the Kd was > 4 mM (inactive). For `N=Nc1c(O)[nH]c2ccccc12`, the Kd was > 4 mM (inactive). `Cn1c(NCc2ccccc2O)nc2ccccc21` was tested, and the Kd was > 4 mM (inactive). With `OCc1ccc2c(c1)OCO2` the Kd was > 4 mM (inactive). In the case of `O=C1CN(c2ccccc2)CC(=O)N1`, the Kd is reported as > 4 mM (inactive). In the case of `O=C1NC(=S)NC(=O)C1=Cc1ccccc1O`, the Kd is reported as > 4 mM (inactive). For `O=C(O)c1ccc(CSc2ncn[nH]2)cc1`, the Kd was > 4 mM (inactive). In the case of `Nc1nnc(-c2ccncc2)s1`, the Kd is reported as > 4 mM (inactive). `O=C1CN2C(=N1)N(Cc1ccccc1)c1ccccc12` was tested, and the Kd was > 4 mM (inactive). For `Nc1ccc(S(=O)(=O)N2CCOCC2)cc1`, the Kd was > 4 mM (inactive). For `O=S(=O)(Cc1ccc(Cl)cc1)N1CCCC1`, the Kd was > 4 mM (inactive). For `CCc1c(C(=O)N2CCOCC2)csc1C`, the Kd was > 4 mM (inactive). With `COC(=O)c1cccc(N)c1` the Kd was > 4 mM (inactive). For `NC(=O)CSc1ccc2nnc(-c3cccs3)n2n1`, the Kd was > 4 mM (inactive). In the case of `O=C1C2CCCCC2C(=O)N1c1nccs1` (configuration not stated), the Kd is reported as > 4 mM (inactive). In the case of `COC(=O)CSc1n[nH]c(N)n1`, the Kd is reported as > 4 mM (inactive). `Cc1cccc(-c2nnc(-c3ccc(N)cc3)o2)c1` was tested, and the Kd was > 4 mM (inactive). In the case of `CCOC(=O)C1CN(C)CCN1C` (configuration not stated), the Kd is reported as > 4 mM (inactive). In the case of `CC(=O)c1ccc2c(c1)OCCO2`, the Kd is reported as > 4 mM (inactive). `NC(=O)CSCc1c(Cl)cccc1Cl` was tested, and the Kd was > 4 mM (inactive). For `Nc1ccc(-n2cccc2)cc1`, the Kd was > 4 mM (inactive). With `O=C(O)CNc1ncnc2nc[nH]c12` the Kd was > 4 mM (inactive). In the case of `CC(C)=CC(=O)Nc1ccc2c(c1)OCO2`, the Kd is reported as > 4 mM (inactive). `COCCn1c(SC)nc2c1c(=O)[nH]c(=O)n2C` was tested, and the Kd was > 4 mM (inactive). With `O=S(=O)(Cc1ccccc1)N1CCCCCC1` the Kd was > 4 mM (inactive). In the case of `O=C1CC(=O)N2N=C(c3ccccc3)SC2=N1`, the Kd is reported as > 4 mM (inactive). `O=[N+]([O-])c1cccc(CN2CCC(O)CC2)c1` was tested, and the Kd was > 4 mM (inactive). In the case of `CCOC(=O)Cn1cnc2c1c(=O)[nH]c(=O)n2C`, the Kd is reported as > 4 mM (inactive). With `NS(=O)(=O)c1ccccc1Cl` the Kd was > 4 mM (inactive). With `CC1SC(=NC(=O)c2ccco2)NC1=O` (configuration not stated) the Kd was > 4 mM (inactive). In the case of `N#CCCn1ccnc1-c1ccccc1`, the Kd is reported as > 4 mM (inactive). For `CCOC(=O)c1c(C)nc2sccn12`, the Kd was > 4 mM (inactive). In the case of `O=C1NC(=S)N/C1=C\c1ccccc1F`, the Kd is reported as > 4 mM (inactive). With `O=C(c1ccncc1)c1ccc(Br)cc1` the Kd was > 4 mM (inactive). With `C[C@H]1C[C@@H](O)[C@]2(O)[C@@]13CC(=O)OC[C@@]2(C)[C@](C)(O)C(=O)C3` the Kd was > 4 mM (inactive). With `O=NN1C(=O)c2ccccc2C1=O` the Kd was > 4 mM (inactive). With `c1cnc(N2CCNCC2)nc1` the Kd was > 4 mM (inactive).
